The first experiment deals with cloned human P2Y1 receptors (Homo sapiens (Human), UniProt P47900). The experiment can be described thus: Binding Assay B: Scintillation Proximity Assay (SPA) for P2Y1 binding. Conditions: SPA, [33P] 2MeS-ADP displacement; read-out: P2Y1 Ki (nM) using binding assay B. The protocol: A SPA membrane binding assay was used to identify inhibitors of [^33P] […] Binding reactions were performed in 384-well OptiPlates (PerkinElmer Life Sciences, Cat #6007299) in a volume of 50 μL containing ˜15 fmol of P2Y1 receptor (1.7 μg of total protein), 0.3 nM [^33P] […] Reactions were allowed to proceed to completion at room temperature for 1 hour followed by centrifugation of the plate for 5 min. About 40 μL of the aqueous solution was aspirated. Plates were sealed and the [^33P]
cloned human P2Y1 receptors, sequence (P47900 whole entry): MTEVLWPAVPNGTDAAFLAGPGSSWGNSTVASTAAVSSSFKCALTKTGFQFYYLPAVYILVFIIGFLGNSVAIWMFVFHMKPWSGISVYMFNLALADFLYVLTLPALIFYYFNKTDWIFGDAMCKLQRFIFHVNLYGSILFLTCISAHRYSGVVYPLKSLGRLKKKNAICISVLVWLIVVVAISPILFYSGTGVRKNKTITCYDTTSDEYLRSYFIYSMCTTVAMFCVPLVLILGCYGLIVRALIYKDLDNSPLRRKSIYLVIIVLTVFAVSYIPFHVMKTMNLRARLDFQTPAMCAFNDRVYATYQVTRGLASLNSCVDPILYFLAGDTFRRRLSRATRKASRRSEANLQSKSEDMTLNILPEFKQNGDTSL
On the technique in general: Scintillation proximity formats need no separation of bound from free tracer.
The Ki is the equilibrium dissociation constant of an inhibitor or competing ligand from its target. For the molecule `CC(C)(C)CN1CCC2(CC1)CN(c1ccccc1NC(=O)Nc1ccc(C(C)(C)C)cc1)c1c2ccc(F)c1O` [Example 2, 1-(4-tert-Butylphenyl)-3-(2-(6-fluoro-7-hydroxy-1′-neopentylspiro[indoline-3,4′-piperidine]-1-yl)phenyl)urea], the Ki is 9 nM.

The test system of the next experiment is human platelet rich plasma (PRP). The experiment can be described thus: ADP induced platelet aggregation assay. The settings on record: Homo sapiens, Platelet, read-out: PA IC50 (μM) @ 10 μM ADP, platelet aggregation induced by 10 μM ADP, human PRP.
Description: The ability of P2Y1 antagonists covered in the present invention to inhibit platelet aggregation induced by 10 μM ADP was tested using human platelet rich plasma (PRP) as described in Platelet Protocols: Research and Clinical Laboratory Procedures (White, M. M. et al., Academic Press (1999)). Human blood was collected in 30 μM (final concentration in blood) argatroban (GSK) as the anticoagulant at a ratio of 1 ml per 9 ml of blood. The PRP was isolated by centrifugation at 170 g for 12 minutes. The platelet poor plasma (PPP) was used as the blank for optical aggregometry. Compounds of the present invention in DMSO solution was preincubated with 250 μl PRP at 37° C. for 1 minute with stirring speed of 1000 rpm. Aggregation was initiated by addition of 2.5 μl of 1 mM ADP (Chrono-log, Havertown, Pa.) for a final ADP concentration of 10 μM. Platelet aggregation was monitored using Optical Aggregometer (Chrono-log, Havertown, Pa.) and the area under the curve (AUC) at 5 minute was measured. IC50 was calculated using vehicle control as 0% inhibition.
The term IC50 denotes the concentration at which inhibition is half-maximal. Take `CC(C)(C)CN1CCC2(CC1)CN(c1ccccc1NC(=O)Nc1ccc(C(C)(C)C)cc1)c1c2ccc(F)c1O` [Example 2, 1-(4-tert-Butylphenyl)-3-(2-(6-fluoro-7-hydroxy-1′-neopentylspiro[indoline-3,4′-piperidine]-1-yl)phenyl)urea]: the IC50 stood at 0.6 µM.

For the molecule `CC(C)(C)CN1CCC2(CC1)CN(c1ccc(F)cc1NC(=O)Nc1nc3ccc(F)cc3s1)c1c(O)ccc(Cl)c12` [Example 68, 1-(2-(4-Chloro-7-hydroxy-1′-neopentylspiro[indoline-3,4′-piperidine]-1-yl)-5-fluorophenyl)-3-(6-fluorobenzo[d]thiazol-2-yl)urea], the IC50 worked out at 0.7 µM.

With `CC(C)(C)CN1CCC2(CC1)CN(c1ccccc1NC(=O)Nc1ccc(OC(F)(F)F)cc1)c1c(O)cc(F)cc12` [Example 76, 1-(2-(5-Fluoro-7-hydroxy-1′-neopentylspiro[indoline-3,4′-piperidine]-1-yl)phenyl)-3-(4-(trifluoromethoxy)phenyl)urea], the IC50 stood at 0.7 µM.

Turning to `COc1ccc2nc(NC(=O)Nc3ccccc3N3CC4(CCN(CC(C)(C)C)CC4)c4c(C#N)ccc(O)c43)sc2c1` [Example 86, l-(2-(4-Cyano-7-hydroxy-1′-neopentylspiro[indoline-3,4′-piperidin]-1-yl)phenyl)-3-(6-methoxybenzo[d]thiazol-2-yl)urea], the IC50 worked out at 0.8 µM.

For the molecule `CC(C)c1nsc(NC(=O)Nc2ccccc2N2CC3(CCN(CC(C)(C)C)CC3)c3c(C#N)ccc(O)c32)n1` [Example 88, l-(2-(4-Cyano-7-hydroxy-1′-neopentylspiro[indoline-3,4′-piperidin]-1-yl)phenyl)-3-(3-isopropyl-1,2,4-thiadiazol-5-yl)urea], the IC50 was 0.9 µM.

On to `CC(C)(C)CN1CCC2(CC1)CN(c1ccccc1NC(=O)Nc1nc3ccc(Cl)cc3s1)c1c(O)cc(F)c(Cl)c12` [Example 94, 1-(2-(4-Chloro-5-fluoro-7-hydroxy-1′-neopentylspiro [indoline-3,4′-piperidine]-1-yl)phenyl)-3-(6-chlorobenzo[d]thiazol-2-yl)urea], for which the IC50 turned out to be 0.7 µM.

Regarding `CC(C)(C)CN1CCC2(CC1)CN(c1ccccc1NC(=O)Nc1csc(Cl)n1)c1c(O)cc(F)c(Cl)c12` [Example 103, 1-(2-(4-Chloro-5-fluoro-7-hydroxy-1′-neopentylspiro [indoline-3,4′-piperidin]-1-yl)phenyl)-3-(2-chlorothiazol-4-yl)urea], the IC50 was found to be 0.3 µM.

Turning to `CC(C)(C)CN1CCC2(CC1)CN(c1ccccc1NC(=O)Nc1nc3ccc(Cl)nc3s1)c1c(O)ccc(-c3nc4cc(C(F)(F)F)ccc4s3)c12` [Example 109, 1-(5-Chlorothiazolo[5,4-b]pyridin-2-yl)-3-(2-(7-hydroxy-1′-neopentyl-4-(5-(trifluoromethyl)benzo[d]thiazol-2-yl)spiro[indoline-3,4′-piperidin]-1-yl)phenyl)urea], the IC50 was 0.4 µM.

For the molecule `CC(C)(C)CN1CCC2(CC1)CN(c1ccccc1NC(=O)Nc1nc3ccc(Cl)nc3s1)c1c(O)ccc(-c3nc4cc(Cl)ccc4s3)c12` [Example 110, 1-(2-(4-(5-Chlorobenzo[d]thiazol-2-yl)-7-hydroxy-1′-neopentylspiro[indoline-3,4′-piperidin]-1-yl)phenyl)-3-(5-chlorothiazolo[5,4-b]pyridin-2-yl)urea], the IC50 turned out to be 0.5 µM.

`CC(C)(C)CN1CCC2(CC1)CN(c1ccccc1NC(=O)Nc1csc(Cl)n1)c1c(O)ccc(-c3nc4cc(Cl)ccc4s3)c12` [Example 111, 1-(2-(4-(5-Chlorobenzo[d]thiazol-2-yl)-7-hydroxy-1′-neopentylspiro[indoline-3,4′-piperidine]-1-yl)phenyl)-3-(2-chlorothiazol-4-yl)urea]: the IC50 was 0.2 µM.

Turning to `CC(C)(C)CN1CCC2(CC1)CN(c1ccccc1NC(=O)Nc1csc(Cl)n1)c1c(O)ccc(-c3nc4cccc(Cl)c4s3)c12` [Example 122, 1-(2-(4-(7-Chlorobenzo[d]thiazol-2-yl)-7-hydroxy-1′-neopentylspiro[indoline-3,4′-piperidin]-1-yl)phenyl)-3-(2-chlorothiazol-4-yl)urea], the 50% inhibitory concentration (IC50) is 0.4 µM.

As for `CC(C)(C)CN1CCC2(CC1)CN(c1ccccc1NC(=O)Nc1nc3ccc(Cl)cc3s1)c1c(O)ccc(-c3nc4cc(F)ccc4s3)c12` [Example 127, 1-(6-Chlorobenzo[d]thiazol-2-yl)-3-(2-(4-(5-fluorobenzo[d]thiazol-2-yl)-7-hydroxy-1′-neopentylspiro[indoline-3,4′-piperidin]-1-yl)phenyl)urea], the IC50 worked out at 0.5 µM.

As for `CC(C)(C)CN1CCC2(CC1)CN(c1ccccc1NC(=O)Nc1nc3ccc(F)cc3s1)c1c(O)ccc(-c3nc4cc(Cl)ccc4s3)c12` [Example 133, 1-(2-(4-(5-Chlorobenzo[d]thiazol-2-yl)-7-hydroxy-1′-neopentylspiro[indoline-3,4′-piperidin]-1-yl)phenyl)-3-(6-fluorobenzo[d]thiazol-2-yl)urea], the IC50 was 0.3 µM.

Turning to `CC(C)(C)CN1CCC2(CC1)CN(c1ccccc1NC(=O)Nc1ccc(OC(F)(F)F)cc1)c1c(O)ccc(-c3nc4cc(Cl)ccc4s3)c12` [Example 134, 1-(2-(4-(5-Chlorobenzo[d]thiazol-2-yl)-7-hydroxy-1′-neopentylspiro[indoline-3,4′-piperidin]-1-yl)phenyl)-3-(4-(trifluoromethoxy)phenyl)urea], the IC50 worked out at 0.4 µM.

`CC(C)(C)CN1CCC2(CC1)CN(c1ccccc1NC(=O)Nc1ccc(OC(F)(F)F)cc1)c1c(O)ccc(-c3nc4ccc(Cl)cc4s3)c12` [Example 136, 1-(2-(4-(6-Chlorobenzo[d]thiazol-2-yl)-7-hydroxy-1′-neopentylspiro[indoline-3,4′-piperidin]-1-yl)phenyl)-3-(4-(trifluoromethoxy)phenyl)urea]: the IC50 amounted to 0.5 µM.

For `CC(C)(C)CN1CCC2(CC1)CN(c1ccccc1NC(=O)Nc1nc3ccc(F)cc3s1)c1c(O)ccc(-c3nc4ccc(Cl)cc4s3)c12` [Example 139, 1-(2-(4-(6-Chlorobenzo[d]thiazol-2-yl)-7-hydroxy-1′-neopentylspiro[indoline-3,4′-piperidin]-1-yl)phenyl)-3-(6-fluorobenzo[d]thiazol-2-yl)urea], the IC50 amounted to 0.4 µM.

For `CC(C)CN1CCC2(CC1)CN(c1ccccc1NC(=O)Nc1ccc(OC(F)(F)F)cc1)c1c(O)ccc(-c3nc4cc(Cl)ccc4s3)c12` [Example 142, 1-(2-(4-(5-Chlorobenzo[d]thiazol-2-yl)-7-hydroxy-1′-isobutylspiro[indoline-3,4′-piperidine]-1-yl)phenyl)-3-(4-(trifluoromethoxy)phenyl)urea], the IC50 came to 0.5 µM.

Regarding `CC(C)N1CCC2(CC1)CN(c1ccccc1NC(=O)Nc1ccc(OC(F)(F)F)cc1)c1c(O)ccc(-c3nc4cc(Cl)ccc4s3)c12` [Example 143, 1-(2-(4-(5-Chlorobenzo[d]thiazol-2-yl)-7-hydroxy-1′-isopropylspiro[indoline-3,4′-piperidine]-1-yl)phenyl)-3-(4(trifluoromethoxy)phenyl)urea], the IC50 was found to be 0.9 µM.

Regarding `CC(C)(C)CN1CCC2(CC1)CN(c1ccccc1NC(=O)Nc1nc3ccc(F)cc3s1)c1c(O)ccc(-c3nc4ccc(F)cc4s3)c12` [Example 148, 1-(6-Fluorobenzo[d]thiazol-2-yl)-3-(2-(4-(6-fluorobenzo[d]thiazol-2-yl)-7-hydroxy-1′-neopentylspiro[indoline-3,4′-piperidin]-1-yl)phenyl)urea], the IC50 was found to be 0.3 µM.

`CC(C)(C)CN1CCC2(CC1)CN(c1ccccc1NC(=O)Nc1csc(Cl)n1)c1c(O)cc(F)c(-c3ccc(Cl)cc3)c12` [Example 163, 1-(2-(4-(4-Chlorophenyl)-5-fluoro-7-hydroxy-1′-neopentylspiro[indoline-3,4′-piperidin]-1-yl)phenyl)-3-(2-chlorothiazol-4-yl)urea]: the IC50 is 0.1 µM.

Take `CC(C)CN1CCC2(CC1)CN(c1ccccc1NC(=O)Nc1nc3ccc(Cl)nc3s1)c1c(O)ccc(C(F)(F)F)c12` [Example 171, 1-(5-Chlorothiazolo[5,4-b]pyridin-2-yl)-3-(2-(7-hydroxy-1′-isobutyl-4-(trifluoromethyl)spiro[indoline-3,4′-piperidine]-1-yl)phenyl)urea]: the IC50 turned out to be 0.3 µM.

On to `COc1ccc2nc(NC(=O)Nc3ccccc3N3CC4(CCN(CC(C)(C)C)CC4)c4c(C#N)ccc(O)c43)sc2n1` [Example 177, 1-(2-(4-Cyano-7-hydroxy-1′-neopentylspiro[indoline-3,4′-piperidine]-1-yl)phenyl)-3-(5-methoxythiazolo[5,4-b]pyridin-2-yl)urea], for which the IC50 stood at 0.7 µM.

On to `CC(C)(C)CN1CCC2(CC1)CN(c1ccccc1NC(=O)Nc1nc3ccc(F)nc3s1)c1c(O)ccc(C#N)c12` [Example 180, 1-(2-(4-Cyano-7-hydroxy-1′-neopentylspiro[indoline-3,4′-piperidine]-1-yl)phenyl)-3-(5-fluorothiazolo[5,4-b]pyridin-2-yl)urea], for which the IC50 is 0.9 µM.

Still in this experiment, the particulars now being: read-out: PA IC50 (μM) @ 10 μM ADP; platelet aggregation induced by 10 μM ADP, human PRP.
On to `CC(C)(C)CN1CCC2(CC1)CN(c1ccccc1NC(=O)Nc1ccc(OC(F)(F)F)cc1)c1c(O)cc(F)c(-c3nc4ccc(F)cc4s3)c12` [Example 151, 1-(2-(5-Fluoro-4-(6-fluorobenzo[d]thiazol-2-yl)-7-hydroxy-1′-neopentylspiro[indoline-3,4′-piperidin]-1-yl)phenyl)-3-(4-(trifluoromethoxy)phenyl)urea], for which the IC50 amounted to 0.3 µM.
